Results published in patent publication US8178658B2 (Dow AgroSciences, LLC, priority 2008, dated 2012).
Where two headings read alike, the source gives them in different places.

Tests used:
[1] = test system: beet armyworm (BAW; Spodoptera exigua: Lepidoptera); assay: 96-well microtiter plate-based high throughput (HTS) diet bioassay on beet armyworm (BAW HTS); format: in vivo; settings: for pest or weed control at 12 µg/well, 12 µg/well: Spodoptera exigua, 144 h, read-out: BAW HTS
Outline: (§1)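 Mortality is the read-out for both formats, scored against a 50% cut-off. Microplate wells received eggs over diet carrying 12 μg test compound, kept in darkness at 29° C for 6 d, six replicates averaged. Diet-tray wells held second instar larvae on diet at 50 μg/cm^2, kept 6 d at 25° C under 14:10 photoperiod.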

[2] = test system: beet armyworm (BAW; Spodoptera exigua: Lepidoptera); assay: 128-well diet tray assay on beet armyworm (BAW 50); format: in vivo; settings: for BAW 50 ug/cm2: 50 μg/cm^2 of test compound on diet; for pest or weed control at 50 µg/cm2, 50 µg/cm2: Spodoptera exigua, 144 h, read-out: BAW 50 ug/cm2
Outline: as §1

[3] = 96-well microtiter plate HTS diet assay, 12 μg test compound per well, BAW eggs, mortality at 6 d post-treatment, mortality class
[4] = 96-well HTS diet bioassay, BAW eggs, 12 μg test compound per well, mortality at 6 d post-treatment, mortality class
[5] = 128-well diet tray assay, second instar BAW larvae, mortality class
[6] = 96-well HTS diet assay, BAW eggs, 12 μg test compound per well, mortality at 6 d post-treatment, mortality class

CO[C@@H]1[C@@H](OC)[C@H](C)O[C@@H](O/N=C/c2ccc(-c3ncn(-c4ccc(OC(F)(F)C(F)C(F)(F)F)cn4)n3)cc2)[C@@H]1OC (stereo partly drawn) [Compound 94, 4-{1-[5-(1,1,2,3,3,3-hexafluoropropoxy)-pyridinyl]-1H-[1,2,4]triazol-3-yl}-benzaldehyde O-((2S,3R,4R,5S,6S)-3,4,5-trimethoxy-6-methyl-tetrahydropyran-2-yl)-oxime]
BAW HTS [1, 3]: B (either (1) the compound was tested and less than 50 percent mortality was observed or (2) the compound was not tested) | pest or weed control at 12 µg/well, 12 µg/well [1, 4]: < 50% | BAW 50 ug/cm2 [2, 5]: A (the compound was tested and at least 50 percent mortality was observed) | pest or weed control at 50 µg/cm2, 50 µg/cm2 ([2]; 128-well diet tray assay, second instar BAW larvae, 50 μg/cm2 of test compound on diet, mortality class): > 50%

COC1C(C)OC(ON=Cc2ccc(-c3cn(-c4ccc(OC(F)(F)F)cc4)cn3)cc2)C(OC)C1OC (centres unmarked) [Compound 30]
BAW HTS [1, 4]: A (the compound was tested and at least 50 percent mortality was observed) | BAW HTS [1, 3]: A (the compound was tested and at least 50 percent mortality was observed) | BAW 50 ug/cm2 [2, 5]: A (the compound was tested and at least 50 percent mortality was observed)

COC1C(C)OC(ON=Cc2ccc(-c3cn(-c4ccc(Cl)cc4)cn3)cc2)C(OC)C1OC (centres unmarked) [Compound 43]
BAW HTS [1, 4]: B (either (1) the compound was tested and less than 50 percent mortality was observed or (2) the compound was not tested) | BAW HTS [1, 3]: B (either (1) the compound was tested and less than 50 percent mortality was observed or (2) the compound was not tested) | BAW 50 ug/cm2 [2, 5]: A (the compound was tested and at least 50 percent mortality was observed)

CO[C@@H]1[C@@H](OC)[C@H](C)O[C@@H](OC(=O)Nc2ccc(-c3nnc(-c4ccc(Cl)cc4Cl)o3)cc2)[C@@H]1OC [Compound 230]
BAW HTS [1, 6]: B (either (1) the compound was tested and less than 50 percent mortality was observed or (2) the compound was not tested) | BAW HTS [1, 3]: B (either (1) the compound was tested and less than 50 percent mortality was observed or (2) the compound was not tested) | BAW 50 ug/cm2 [2, 5]: A (the compound was tested and at least 50 percent mortality was observed)

COC1C(C)OC(ON=Cc2ccc(-c3ccn(-c4ccc(SC)cc4)n3)cc2)C(OC)C1OC (centres unmarked) [Compound 9]
BAW HTS [1, 4]: B (either (1) the compound was tested and less than 50 percent mortality was observed or (2) the compound was not tested) | BAW HTS [1, 3]: B (either (1) the compound was tested and less than 50 percent mortality was observed or (2) the compound was not tested) | BAW 50 ug/cm2 [2, 5]: A (the compound was tested and at least 50 percent mortality was observed)

COC1C(C)OC(ON=Cc2ccc(-c3cn(-c4ccc(C(C)(C)C)cc4)cn3)cc2)C(OC)C1OC (centres unmarked) [Compound 48]
BAW HTS [1, 4]: B (either (1) the compound was tested and less than 50 percent mortality was observed or (2) the compound was not tested) | BAW HTS [1, 3]: B (either (1) the compound was tested and less than 50 percent mortality was observed or (2) the compound was not tested) | BAW 50 ug/cm2 [2, 5]: A (the compound was tested and at least 50 percent mortality was observed)

CCO[C@@H]1[C@@H](OC)[C@H](C)O[C@@H](OC(=O)Nc2ccc(-c3ccc(-c4ccc(OC(F)(F)F)cc4)cn3)cc2)[C@@H]1OC [Compound 239]
BAW HTS [1, 6]: B (either (1) the compound was tested and less than 50 percent mortality was observed or (2) the compound was not tested) | BAW HTS [1, 3]: B (either (1) the compound was tested and less than 50 percent mortality was observed or (2) the compound was not tested) | BAW 50 ug/cm2 [2, 5]: B (either (1) the compound was tested and less than 50 percent mortality was observed or (2) the compound was not tested)

COC1C(C)OC(ON=C(C)c2ccc(F)c(-c3cn(-c4ccc(OC(F)(F)F)cc4)cn3)c2)C(OC)C1OC (centres unmarked) [Compound 168]
BAW HTS [1, 6]: A (the compound was tested and at least 50 percent mortality was observed) | BAW HTS [1, 3]: A (the compound was tested and at least 50 percent mortality was observed) | BAW 50 ug/cm2 [2, 5]: A (the compound was tested and at least 50 percent mortality was observed)

COC1C(C)OC(ON=Cc2ccc(-c3csc(-c4ncc(C(F)(F)F)cc4Cl)n3)cc2)C(OC)C1OC (centres unmarked) [Compound 63]
BAW HTS [1, 4]: A (the compound was tested and at least 50 percent mortality was observed) | BAW HTS [1, 3]: A (the compound was tested and at least 50 percent mortality was observed) | BAW 50 ug/cm2 [2, 5]: A (the compound was tested and at least 50 percent mortality was observed)

CCO[C@@H]1[C@@H](OC)[C@H](C)O[C@@H](OC(=O)Nc2ccc(N3CCN(c4ccc(OC(F)(F)F)cc4)CC3)cc2)[C@@H]1OC [Compound 241]
BAW HTS [1, 6]: B (either (1) the compound was tested and less than 50 percent mortality was observed or (2) the compound was not tested) | BAW HTS [1, 3]: B (either (1) the compound was tested and less than 50 percent mortality was observed or (2) the compound was not tested) | BAW 50 ug/cm2 [2, 5]: B (either (1) the compound was tested and less than 50 percent mortality was observed or (2) the compound was not tested)

CCO[C@@H]1[C@@H](OC)[C@H](C)O[C@@H](OC(=O)Nc2ccc(-c3cnnc(-c4ccc(OC(F)(F)F)cc4)n3)cc2)[C@@H]1OC [Compound 238]
BAW HTS [1, 6]: B (either (1) the compound was tested and less than 50 percent mortality was observed or (2) the compound was not tested) | BAW HTS [1, 3]: B (either (1) the compound was tested and less than 50 percent mortality was observed or (2) the compound was not tested) | BAW 50 ug/cm2 [2, 5]: A (the compound was tested and at least 50 percent mortality was observed)

CCOC1C(OC)C(C)OC(ON=Cc2ccc(-c3ncc(-c4ccc(C)cc4)cn3)cc2)C1OC (centres unmarked) [Compound 150]
BAW HTS [1, 6]: B (either (1) the compound was tested and less than 50 percent mortality was observed or (2) the compound was not tested) | BAW HTS [1, 3]: B (either (1) the compound was tested and less than 50 percent mortality was observed or (2) the compound was not tested) | BAW 50 ug/cm2 [2, 5]: B (either (1) the compound was tested and less than 50 percent mortality was observed or (2) the compound was not tested)

CCO[C@@H]1[C@@H](OC)[C@H](C)O[C@@H](OC(=O)N(COC)c2ccc(-c3ncn(-c4ccc(OC(F)(F)C(F)(F)F)cc4)n3)cc2)[C@@H]1OC [Compound 255, methoxymethyl {4-[1-(4-pentafluoroethoxyphenyl)-1H-[1,2,4]triazol-3-yl]-phenyl}-carbamic acid (2S,3R,4R,5S,6S)-4-ethoxy-3,5-dimethoxy-6-methyl-tetrahydropyran-2-yl ester]
BAW HTS [1, 3]: B (either (1) the compound was tested and less than 50 percent mortality was observed or (2) the compound was not tested) | pest or weed control at 12 µg/well, 12 µg/well [1]: < 50% | BAW 50 ug/cm2 [2, 5]: A (the compound was tested and at least 50 percent mortality was observed) | pest or weed control at 50 µg/cm2, 50 µg/cm2 [2]: > 50%

COc1ccc(C=NOC2OC(C)C(OC)C(OC)C2OC)cc1-c1cn(-c2ccc(C(F)(F)F)cc2)cn1 (centres unmarked) [Compound 40]
BAW HTS [1, 4]: B (either (1) the compound was tested and less than 50 percent mortality was observed or (2) the compound was not tested) | BAW HTS [1, 3]: B (either (1) the compound was tested and less than 50 percent mortality was observed or (2) the compound was not tested) | BAW 50 ug/cm2 [2, 5]: A (the compound was tested and at least 50 percent mortality was observed)

COC1C(C)OC(ON=Cc2ccc(-c3cn(-c4ccc(OC(F)(F)F)c(C(F)(F)F)c4)cn3)cc2)C(OC)C1OC (centres unmarked) [Compound 59]
BAW HTS [1, 4]: A (the compound was tested and at least 50 percent mortality was observed) | BAW HTS [1, 3]: A (the compound was tested and at least 50 percent mortality was observed) | BAW 50 ug/cm2 [2, 5]: A (the compound was tested and at least 50 percent mortality was observed)

CCOC1C(C)OC(ON=Cc2ccc(-c3ncn(-c4ccc(OC(F)(F)C(F)(F)F)cc4)n3)cc2)C(OCC)C1OCC (centres unmarked) [Compound 92]
BAW HTS [1, 4]: B (either (1) the compound was tested and less than 50 percent mortality was observed or (2) the compound was not tested) | BAW HTS [1, 3]: B (either (1) the compound was tested and less than 50 percent mortality was observed or (2) the compound was not tested) | BAW 50 ug/cm2 [2, 5]: A (the compound was tested and at least 50 percent mortality was observed)

COC1C(C)OC(ON=Cc2ccc(-c3cn(-c4cc(F)cc(F)c4)cn3)cc2)C(OC)C1OC (centres unmarked) [Compound 24]
BAW HTS [1, 4]: A (the compound was tested and at least 50 percent mortality was observed) | BAW HTS [1, 3]: A (the compound was tested and at least 50 percent mortality was observed) | BAW 50 ug/cm2 [2, 5]: B (either (1) the compound was tested and less than 50 percent mortality was observed or (2) the compound was not tested)

COC1C(C)OC(ON=Cc2ccc(-c3ncn(-c4ccc(SC(F)(F)C(F)(F)F)cc4)n3)cc2)C(OC)C1OC (centres unmarked) [Compound 105]
BAW HTS [1, 4]: B (either (1) the compound was tested and less than 50 percent mortality was observed or (2) the compound was not tested) | BAW HTS [1, 3]: B (either (1) the compound was tested and less than 50 percent mortality was observed or (2) the compound was not tested) | BAW 50 ug/cm2 [2, 5]: A (the compound was tested and at least 50 percent mortality was observed)

CO[C@@H]1[C@@H](OC)[C@H](C)O[C@H](OC(=O)Nc2ccc(-c3ncn(-c4ccc(OC(F)(F)C(F)(F)F)cc4)n3)cc2)[C@@H]1OC [Compound 208]
BAW HTS [1, 6]: A (the compound was tested and at least 50 percent mortality was observed) | BAW HTS [1, 3]: A (the compound was tested and at least 50 percent mortality was observed) | BAW 50 ug/cm2 [2, 5]: A (the compound was tested and at least 50 percent mortality was observed)
